# From ChEMBL document CHEMBL1201862, “PubChem BioAssay data set” (2004)
# Calls of active or inactive are those of the source.
# Tests used:
# [1] = biological target: T1, Hexokinase HKDC1 (Homo sapiens, UniProt Q2TB90); test: HKDC1 hexokinase inhibitors, dose response, biochemical, W721R variant (AID 504729); type: functional
# T1 sequence (Q2TB90 whole entry): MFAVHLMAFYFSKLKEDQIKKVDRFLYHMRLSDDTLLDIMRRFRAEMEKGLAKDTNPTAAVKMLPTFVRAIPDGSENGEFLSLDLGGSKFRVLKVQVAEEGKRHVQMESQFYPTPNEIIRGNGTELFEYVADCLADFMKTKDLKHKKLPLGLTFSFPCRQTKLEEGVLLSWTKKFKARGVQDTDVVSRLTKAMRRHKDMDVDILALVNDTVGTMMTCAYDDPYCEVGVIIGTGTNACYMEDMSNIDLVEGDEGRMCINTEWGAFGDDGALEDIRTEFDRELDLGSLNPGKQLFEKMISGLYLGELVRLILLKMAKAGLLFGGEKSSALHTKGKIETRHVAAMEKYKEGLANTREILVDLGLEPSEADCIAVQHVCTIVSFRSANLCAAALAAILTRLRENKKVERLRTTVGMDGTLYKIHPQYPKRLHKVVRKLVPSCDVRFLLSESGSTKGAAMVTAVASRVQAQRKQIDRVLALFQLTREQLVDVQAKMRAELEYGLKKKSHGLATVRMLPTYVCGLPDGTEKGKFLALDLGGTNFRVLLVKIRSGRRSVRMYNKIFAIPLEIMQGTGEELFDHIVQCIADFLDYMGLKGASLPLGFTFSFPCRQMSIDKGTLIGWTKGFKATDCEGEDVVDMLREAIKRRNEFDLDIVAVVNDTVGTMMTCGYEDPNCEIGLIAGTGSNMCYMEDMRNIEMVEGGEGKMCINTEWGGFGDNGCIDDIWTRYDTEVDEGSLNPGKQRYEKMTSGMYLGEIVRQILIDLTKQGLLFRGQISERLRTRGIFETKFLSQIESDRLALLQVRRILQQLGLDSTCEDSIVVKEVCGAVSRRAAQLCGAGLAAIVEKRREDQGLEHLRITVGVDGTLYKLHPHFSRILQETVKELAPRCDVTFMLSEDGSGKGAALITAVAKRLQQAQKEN
# [2] = biological target: T2, E3 ubiquitin-protein ligase XIAP (Homo sapiens, UniProt P98170); test: Counter Screen using XIAP-Bir3 for Chemical Antagonists of Bir1/2 domains of IAP-family anti-apoptotic proteins. [Related pubchem assays (depositor defined):AID1018, AID1449, AID1514, AID1638, AID1749, AID1750, AID488957, AID488963]
# [3] = biological target: T2, E3 ubiquitin-protein ligase XIAP; test: XIAP antagonists, biochemical, IAP family, fluorescence polarization (AID 1018); type: functional
# [4] = tested on: HEK293; test: PMA/Ionomycin induced NF-kB luciferase assay in 293- NF-kB-Luc stable cells. [Related pubchem assays: 1299, 1270, 1295, 1375, 1287, 1281, 1293, 1291, 1289, 1280, 465, 1364, 1282, 1372, 1365, 1370, 1367, 1366, 1269, 1373, 1292, 1290, 1302, 1371, 1283, 1271, 1294, 1374, 1368, 1369 ]; type: functional, cell-based; details: Homo sapiens
# [5] = biological target: T3, Luciferin 4-monooxygenase (Photinus pyralis, UniProt P08659); test: In vitro luciferase assay using purified luciferase. [Related pubchem assays: 1299, 1270, 1295, 1375, 1287, 1281, 1293, 1291, 1289, 1280, 465, 1364, 1282, 1372, 1365, 1370, 1367, 1366, 1266, 1373, 1292, 1290, 1302, 1371, 1283, 1271, 1294, 1374, 1368, 1369 ]
# [6] = biological target: T3, Luciferin 4-monooxygenase; test: firefly luciferase enzyme inhibitors, dose response, biochemical, luminescence (AID 1891)
# [7] = Luminescence Cell-Based Dose Confirmation HTS to Identify Inhibitors of Platelet Dense Granule Release. [Related pubchem assays: 1663 (Primary HTS), 1678 (Summary of Project)]; type: functional
# [8] = tested on: HEK293; test: Cytotoxicity assay in HEK293 cells. [Related pubchem assays (depositor defined):AID1266, AID1269, AID1270, AID1271, AID1280, AID1281, AID1282, AID1283, AID1287, AID1289, AID1290, AID1291, AID1292, AID1293, AID1294, AID1295, AID1299, AID1302, AID1364, AID1365, AID1366, AID1367, AID1369, AID1370, AID1371, AID1372, AID1373, AID1374, AID1375, AID1384 …; type: functional, cell-based; details: Homo sapiens
# [9] = tested on: HEK293; test: TNF Induced NF-kB Luciferase in 293-NF-kB-Luc Stable Cells. [Related pubchem assays: 1266, 1299, 1269, 1373, 1292, 1290, 1302, 1371, 1283, 1270, 1295, 1271, 1375, 1294, 1374, 1281, 1293, 1291, 1289, 1280, 465, 1368, 1364, 1282, 1372, 1365, 1369, 1370, 1367, 1366 ]; type: functional, cell-based; details: Homo sapiens
# [10] = tested on: HEK293; test: inhibitors of LMP1-driven NF-kB reporter, dose response, cell-based, HEK293, luciferase, cherry-pick (AID 588343); type: functional; details: Homo sapiens
# [11] = biological target: T4, Delta-type opioid receptor (Homo sapiens, UniProt P41143); test: HTS Image-Based Screen for Antagonists of the DOR Receptor. [Related pubchem assays (depositor defined):AID1777, AID1785, AID1786, AID2133]; type: functional
# [12] = biological target: Mu-type opioid receptor (Homo sapiens, UniProt P35372); test: HTS Image-Based Screen for Agonists of the MOR Receptor. [Related pubchem assays (depositor defined):AID1777, AID1785, AID1786, AID2133]; type: functional;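 note: imaging of beta-arrestin GFP recruitment into spots after receptor activation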
# [13] = biological target: T4, Delta-type opioid receptor; test: HTS Image-Based Screen for Agonists of the DOR Receptor. [Related pubchem assays (depositor defined):AID1777, AID1786, AID2133]; type: functional
# [14] = biological target: T5, Kappa-type opioid receptor (Homo sapiens, UniProt P41145); type: functional
# [15] = biological target: Beta-galactosidase (Escherichia coli, UniProt Q8VNN2); type: functional
# [16] = biological target: T5, Kappa-type opioid receptor; type: functional; remark: listed apart in the source
# [17] = biological target: T6, Long-chain-fatty-acid--AMP ligase FadD28 (Mycobacterium tuberculosis, UniProt P9WQ59); test: Fluorescence polarization aasay to screen for inhibitors that compete for the binding of FadD28 to a bisubstrate Measured in Biochemical System Using Plate Reader - 2147-01_Inhibitor_Dose_CherryPick_Activity.; type: functional, Mycobacterium tuberculosis H37Rv
# T6 sequence (P9WQ59 whole entry): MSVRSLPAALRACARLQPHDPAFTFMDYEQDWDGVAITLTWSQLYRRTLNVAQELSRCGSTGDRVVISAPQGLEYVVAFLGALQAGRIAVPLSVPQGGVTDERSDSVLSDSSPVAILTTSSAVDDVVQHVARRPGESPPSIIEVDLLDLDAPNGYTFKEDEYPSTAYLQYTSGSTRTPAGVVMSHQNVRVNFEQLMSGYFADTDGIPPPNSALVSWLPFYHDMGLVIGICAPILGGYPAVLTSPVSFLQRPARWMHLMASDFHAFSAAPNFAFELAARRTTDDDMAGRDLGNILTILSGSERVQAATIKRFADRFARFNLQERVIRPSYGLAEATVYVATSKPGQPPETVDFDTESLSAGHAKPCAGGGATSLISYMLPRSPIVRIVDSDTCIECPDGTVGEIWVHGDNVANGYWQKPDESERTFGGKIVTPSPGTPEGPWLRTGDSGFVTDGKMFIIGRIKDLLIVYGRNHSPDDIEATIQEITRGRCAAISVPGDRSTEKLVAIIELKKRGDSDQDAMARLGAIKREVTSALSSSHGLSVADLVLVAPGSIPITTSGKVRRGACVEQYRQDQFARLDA
# [18] = biological target: Peroxisome proliferator-activated receptor gamma/Nuclear receptor coactivator 1 (Homo sapiens, UniProt P37231); test: (§1) TR-FRET dose response biochemical High Throughput Screening assay for agonists of the steroid receptor coactivator 1 (SRC-1) recruitment by the peroxisome proliferator-activated receptor gamma (PPAR gamma): non-selective agonists. [Related pubchem assays (depositor defined):AID1300, AID1808, AID504735, AID631]; type: protein assay
# [19] = biological target: Peroxisome proliferator-activated receptor gamma/Nuclear receptor coactivator 3 (Homo sapiens, UniProt P37231); test: as §1, with “3 (SRC-3)” for “1 (SRC-1)”, “assays: 1301 (Confirmation screen.), 1048 (Primary screen.)]” for “assays (depositor defined):AID1300, AID1808, AID504735, AID631]”; type: functional
# [20] = biological target: Peroxisome proliferator-activated receptor gamma/Nuclear receptor coactivator 2 (Homo sapiens, UniProt P37231); test: TR-FRET dose response biochemical High Throughput Screening assay for agonists of the steroid receptor coactivator 2 (SRC-2) recruitment by the peroxisome proliferator-activated receptor gamma (PPAR gamma): non-selective agonists. [Related pubchem assays: 1297, 1032 ]; type: functional
# [21] = tested on: HeLa; test: HeLa cell cytotoxicity, dose response, cytotoxicity control for MITF activator project, CellTiter-Glo luminescence, cherry-pick samples (AID 540259); type: functional, cell-based; details: Homo sapiens
# [22] = biological target: Trypsin (Sus scrofa, UniProt P00761); test: porcine trypsin inhibitors, dose response, selectivity assay for Rce1 protease inhibitor project, biochemical, quenched peptide fluorescence, cherry-pick (AID 488789)
# [23] = biological target: CAAX prenyl protease 2 (Saccharomyces cerevisiae S288c, UniProt Q03530); type: biochemical
# CAAX prenyl protease 2, sequence (Q03530 whole entry): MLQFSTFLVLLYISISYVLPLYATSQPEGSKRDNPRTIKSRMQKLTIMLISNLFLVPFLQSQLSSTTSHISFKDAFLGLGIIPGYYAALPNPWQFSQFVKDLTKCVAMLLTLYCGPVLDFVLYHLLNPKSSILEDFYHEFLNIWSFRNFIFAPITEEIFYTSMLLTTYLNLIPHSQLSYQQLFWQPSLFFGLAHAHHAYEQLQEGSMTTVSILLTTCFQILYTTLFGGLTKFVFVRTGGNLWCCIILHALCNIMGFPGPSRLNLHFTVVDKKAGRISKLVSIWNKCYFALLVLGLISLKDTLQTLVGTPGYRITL
# T5 sequence (P41145 whole entry): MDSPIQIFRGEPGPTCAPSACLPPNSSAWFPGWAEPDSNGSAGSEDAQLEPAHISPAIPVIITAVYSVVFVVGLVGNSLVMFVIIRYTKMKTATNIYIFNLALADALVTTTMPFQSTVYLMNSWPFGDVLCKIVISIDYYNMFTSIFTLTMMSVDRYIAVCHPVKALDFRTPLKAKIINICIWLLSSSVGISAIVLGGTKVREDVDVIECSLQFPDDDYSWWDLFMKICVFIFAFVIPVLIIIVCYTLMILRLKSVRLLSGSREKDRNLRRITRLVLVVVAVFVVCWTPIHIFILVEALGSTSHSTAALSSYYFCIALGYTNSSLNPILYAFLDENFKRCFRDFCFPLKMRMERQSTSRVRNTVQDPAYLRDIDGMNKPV
# T3 sequence (P08659 whole entry): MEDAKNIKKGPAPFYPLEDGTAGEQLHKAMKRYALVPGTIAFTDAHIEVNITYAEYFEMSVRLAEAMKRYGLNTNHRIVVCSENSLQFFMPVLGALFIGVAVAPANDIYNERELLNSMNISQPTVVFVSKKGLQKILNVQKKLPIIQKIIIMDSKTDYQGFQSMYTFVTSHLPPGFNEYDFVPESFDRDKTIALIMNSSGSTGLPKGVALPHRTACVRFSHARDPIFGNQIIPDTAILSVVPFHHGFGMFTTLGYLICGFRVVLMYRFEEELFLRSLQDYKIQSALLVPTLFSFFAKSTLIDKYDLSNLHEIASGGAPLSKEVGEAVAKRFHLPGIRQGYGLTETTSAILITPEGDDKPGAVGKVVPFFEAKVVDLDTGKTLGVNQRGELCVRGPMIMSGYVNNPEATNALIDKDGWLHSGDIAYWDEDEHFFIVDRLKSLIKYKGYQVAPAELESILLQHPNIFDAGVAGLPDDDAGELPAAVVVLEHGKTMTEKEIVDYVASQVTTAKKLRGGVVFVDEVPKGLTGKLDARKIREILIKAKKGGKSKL
# T4 sequence (P41143 whole entry): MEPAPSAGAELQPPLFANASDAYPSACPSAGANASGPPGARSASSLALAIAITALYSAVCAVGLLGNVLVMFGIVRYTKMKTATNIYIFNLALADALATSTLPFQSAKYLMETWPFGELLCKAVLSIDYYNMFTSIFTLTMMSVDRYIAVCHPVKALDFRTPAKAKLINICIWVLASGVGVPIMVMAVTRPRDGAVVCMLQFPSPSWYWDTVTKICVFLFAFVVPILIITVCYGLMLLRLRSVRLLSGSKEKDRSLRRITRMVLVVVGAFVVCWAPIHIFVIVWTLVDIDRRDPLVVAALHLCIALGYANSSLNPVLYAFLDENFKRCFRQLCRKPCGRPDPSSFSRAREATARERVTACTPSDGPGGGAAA
# T2 sequence (P98170 whole entry): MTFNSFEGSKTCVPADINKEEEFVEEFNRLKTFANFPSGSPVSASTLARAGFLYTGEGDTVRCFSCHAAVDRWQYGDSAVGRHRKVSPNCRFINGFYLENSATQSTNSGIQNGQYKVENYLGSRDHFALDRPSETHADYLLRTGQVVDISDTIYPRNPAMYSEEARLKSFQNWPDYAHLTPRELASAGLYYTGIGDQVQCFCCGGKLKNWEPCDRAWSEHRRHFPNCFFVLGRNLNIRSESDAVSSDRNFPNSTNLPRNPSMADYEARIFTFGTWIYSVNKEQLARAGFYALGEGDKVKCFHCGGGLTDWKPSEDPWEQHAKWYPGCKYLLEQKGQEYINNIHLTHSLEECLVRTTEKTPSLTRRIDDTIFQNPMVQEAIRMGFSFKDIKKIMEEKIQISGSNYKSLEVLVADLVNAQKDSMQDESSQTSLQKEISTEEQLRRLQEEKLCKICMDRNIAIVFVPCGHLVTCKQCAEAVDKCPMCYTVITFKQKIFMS
# Mu-type opioid receptor, sequence (P35372 whole entry): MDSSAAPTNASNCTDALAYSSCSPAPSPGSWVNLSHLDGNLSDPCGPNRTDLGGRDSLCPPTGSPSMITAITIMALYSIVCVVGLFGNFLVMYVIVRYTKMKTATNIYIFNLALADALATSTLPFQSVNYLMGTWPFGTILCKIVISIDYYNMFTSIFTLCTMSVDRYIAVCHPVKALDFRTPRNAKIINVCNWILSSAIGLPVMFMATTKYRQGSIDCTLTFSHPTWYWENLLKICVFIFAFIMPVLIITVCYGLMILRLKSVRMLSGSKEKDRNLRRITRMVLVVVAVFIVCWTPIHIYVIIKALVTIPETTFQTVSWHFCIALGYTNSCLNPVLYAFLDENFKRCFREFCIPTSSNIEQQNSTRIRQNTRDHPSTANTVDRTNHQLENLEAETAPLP
# Trypsin, sequence (P00761 whole entry): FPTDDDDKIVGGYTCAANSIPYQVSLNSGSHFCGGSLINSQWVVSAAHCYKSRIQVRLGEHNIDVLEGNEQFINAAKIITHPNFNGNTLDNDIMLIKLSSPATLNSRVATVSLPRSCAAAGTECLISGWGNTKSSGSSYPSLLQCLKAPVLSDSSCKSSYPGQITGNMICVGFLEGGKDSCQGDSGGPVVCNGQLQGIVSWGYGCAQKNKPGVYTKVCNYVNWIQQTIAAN
# Peroxisome proliferator-activated receptor gamma/Nuclear receptor coactivator 1, sequence (P37231 whole entry): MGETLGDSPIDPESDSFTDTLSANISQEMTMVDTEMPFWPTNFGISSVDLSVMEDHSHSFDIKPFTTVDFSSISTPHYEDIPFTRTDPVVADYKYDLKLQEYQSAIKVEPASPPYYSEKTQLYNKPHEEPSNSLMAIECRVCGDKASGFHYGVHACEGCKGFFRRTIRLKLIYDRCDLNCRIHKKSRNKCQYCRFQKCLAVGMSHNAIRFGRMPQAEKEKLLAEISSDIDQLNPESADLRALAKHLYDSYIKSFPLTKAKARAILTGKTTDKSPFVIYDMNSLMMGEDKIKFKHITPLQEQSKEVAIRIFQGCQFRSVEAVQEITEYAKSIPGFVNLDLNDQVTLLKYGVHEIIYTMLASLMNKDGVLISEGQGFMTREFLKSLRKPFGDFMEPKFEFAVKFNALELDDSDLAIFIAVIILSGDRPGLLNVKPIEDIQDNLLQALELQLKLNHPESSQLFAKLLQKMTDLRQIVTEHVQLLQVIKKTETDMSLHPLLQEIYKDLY
# Peroxisome proliferator-activated receptor gamma/Nuclear receptor coactivator 1, sequence (Q15788 whole entry, further chain): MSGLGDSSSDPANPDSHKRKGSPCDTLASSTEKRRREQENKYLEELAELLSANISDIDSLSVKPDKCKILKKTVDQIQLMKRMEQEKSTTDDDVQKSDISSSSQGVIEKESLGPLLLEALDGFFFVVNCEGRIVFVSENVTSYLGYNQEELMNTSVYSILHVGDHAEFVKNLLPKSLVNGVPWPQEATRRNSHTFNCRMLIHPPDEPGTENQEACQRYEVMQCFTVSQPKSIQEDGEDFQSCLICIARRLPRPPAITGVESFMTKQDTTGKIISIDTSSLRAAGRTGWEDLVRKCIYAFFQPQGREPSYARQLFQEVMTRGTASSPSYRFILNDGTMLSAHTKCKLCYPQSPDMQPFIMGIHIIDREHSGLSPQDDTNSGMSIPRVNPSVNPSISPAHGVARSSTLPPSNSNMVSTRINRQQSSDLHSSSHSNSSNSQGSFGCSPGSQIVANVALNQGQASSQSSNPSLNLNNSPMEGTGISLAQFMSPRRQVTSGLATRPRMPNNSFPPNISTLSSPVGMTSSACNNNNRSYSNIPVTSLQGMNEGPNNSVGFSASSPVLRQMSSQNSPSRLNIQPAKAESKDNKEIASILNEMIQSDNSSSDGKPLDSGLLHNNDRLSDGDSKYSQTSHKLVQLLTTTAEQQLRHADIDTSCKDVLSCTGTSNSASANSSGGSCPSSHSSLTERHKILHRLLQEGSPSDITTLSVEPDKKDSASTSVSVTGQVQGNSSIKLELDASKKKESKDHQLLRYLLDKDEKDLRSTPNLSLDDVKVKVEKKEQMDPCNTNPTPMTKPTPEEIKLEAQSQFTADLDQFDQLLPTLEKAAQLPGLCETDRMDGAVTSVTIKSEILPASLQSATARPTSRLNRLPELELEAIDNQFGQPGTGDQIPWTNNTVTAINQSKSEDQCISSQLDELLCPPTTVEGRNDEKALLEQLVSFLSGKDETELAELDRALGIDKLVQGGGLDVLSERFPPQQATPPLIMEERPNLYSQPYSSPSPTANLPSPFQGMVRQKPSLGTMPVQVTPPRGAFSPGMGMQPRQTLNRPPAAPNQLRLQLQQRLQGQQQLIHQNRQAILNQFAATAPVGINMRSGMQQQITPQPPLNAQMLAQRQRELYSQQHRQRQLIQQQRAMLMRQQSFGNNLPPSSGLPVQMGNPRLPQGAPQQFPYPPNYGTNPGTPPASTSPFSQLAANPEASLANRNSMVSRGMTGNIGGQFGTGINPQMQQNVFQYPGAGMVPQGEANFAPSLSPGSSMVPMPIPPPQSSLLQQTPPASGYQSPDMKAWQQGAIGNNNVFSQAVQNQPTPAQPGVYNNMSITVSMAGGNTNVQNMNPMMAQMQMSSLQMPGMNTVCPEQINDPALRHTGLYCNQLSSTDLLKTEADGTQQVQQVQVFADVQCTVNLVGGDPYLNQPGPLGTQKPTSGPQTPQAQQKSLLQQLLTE
compound,measurement,setting,value
CC(C)Nc1nnc(SCC(=O)Nc2ccc3c(c2)C(=O)c2ccccc2C3=O)s1,IC50,[1],29.7 µM (inactive)
Cc1cccc2c(N=NC(=O)c3ccc(NS(=O)(=O)c4cccs4)cc3)c(O)[nH]c12,IC50,[1],15.5 µM (active)
Cc1ccccc1Oc1nnc(-c2cccs2)c2ccccc12,IC50,[2],> 100 µM (inactive)
same,IC50,[3],> 100 µM (not active)
CC(=O)c1ccc(-c2nc3c4ccccc4ccn3c2C(C)=O)o1,EC50,[4],0.0552 µM (active)
same,EC50,[5],> 8 µM (not active)
same,EC50,[6],> 112 µM (not active)
same,EC50,[7],> 112 µM (not active)
same,EC50,[8],> 8 µM (inactive)
same,EC50,[9],0.503 µM (active)
same,AC50,[10],3.1 µM (active)
COc1cc(/C=C2\SC(=S)N(NC(=O)c3ccc(O)c(OC)c3)C2=O)ccc1O,IC50,[11],> 32 µM (inactive)
same,EC50,[12],> 32 µM (inactive)
same,EC50,[13],> 32 µM (inactive)
same,IC50,[14],14.9 µM (active)
same,EC50,[15],10.3 µM (active)
same,IC50,[16],> 32 µM
same,AC50,[17],> 100 µM (inactive)
O=C(Nc1ccccc1)c1ccc(-c2ccccc2)s1,EC50,[18],8.84 µM (active)
same,EC50,[19],35 µM (not active)
same,EC50,[20],10.6 µM (not active)
same,AC50,[21],48 µM (active)
Cc1cccc(/C=N/NC(=O)c2ccc(Br)cc2)c1,AC50,[22],7.5 µM (active)
same,AC50,[23],7.44 µM (active)
